Test results: patent US11191772B2, “Use” (DSM IP ASSETS B.V., priority 2017, dated 2021)

How the values were obtained:
Assay in all cases: Antimicrobial efficacy challenge test (in analogy to NF EN ISO11930)
[1] = system: Aspergillus brasiliensis; type: cell-based; conditions: 22° C.
Protocol: (§1) The antimicrobial efficacy is assessed in analogy to the regulatory challenge test method (NF EN ISO11930). Thus, a solution of Erythrulose from DSM Nutritional products in two different concentrations was prepared under sterile conditions. For this the Erythrulose was solubilized in physiological serum with 0.85 wt.-% NaCl. Phenoxyethanol was solubilized in a physiological serum with 0.85 wt.-% NaCl further comprising 5 wt.-% ethanol to ensure solubility. The solutions were deposed in 96-deep well plates (1.6 ml/well). The wells were contaminated with the respective bacterial or the fungal strains at 1.9*10^5 to 8.1*10^5 cfu/ml for the bacteria and 3.3*10^3 to 3.8*10^4 cfu/ml for the fungi to obtain the initial contamination as outlined in table 1 and 2. After contamination each well was thoroughly mixed to ensure a homogeneous distribution of the microorganism. Then each plate was incubated at 22° C. for 24 h. The counting of the (remaining) population was carried out 24 h after contamination.

[2] = system: Corynebacterium xerosis; type: cell-based; conditions: for colony counts 24 h: 22° C.
Protocol: as §1

[3] = system: Escherichia coli; type: cell-based; conditions: for colony counts 24 h: 22° C.
Protocol: as §1

[4] = system: Propionibacterium acnes; type: cell-based; conditions: for colony counts 24 h: 22° C.
Protocol: as §1

[5] = system: Pseudomonas aeruginosa; type: cell-based; conditions: for colony counts 24 h: 22° C.
Protocol: as §1

[6] = system: Staphylococcus epidermidis; type: cell-based; conditions: for colony counts 24 h: 22° C.
Protocol: as §1

[7] = system: C. albicans; type: cell-based, Candida albicans; conditions: Erythrulose 0.4 wt.-%, 24 h after contamination, 22° C., 0 h count 19000
Protocol: as §1

[8] = system: S. aureus; type: cell-based, Staphylococcus aureus; conditions: Erythrulose 0.4 wt.-%, 24 h after contamination, 22° C., 0 h count 190000
Protocol: as §1

O=C(CO)[C@H](O)CO (racemic) [Erythrulose, erythrulose]
colony counts 24 h ([1]; Erythrulose 0.08% active, Aspergillus brasiliensis, 24 h, t0 count 10000): 10 cfu/ml | colony counts 24 h ([1]; Erythrulose 0.4 wt.-%, A. brasiliensis, 24 h after contamination, 0 h count 38000): 330 cfu/ml | antimicrobial activity (in words) ([2]; C. xerosis, very low concentration (table 2, 0.08%)): particularly and selectively active | colony counts 24 h ([2]; Erythrulose 0.08% active, Corynebacterium xerosis, 24 h, t0 count 250000): 55 cfu/ml | colony counts 24 h ([2]; Erythrulose 0.4 wt.-%, C. xerosis, 24 h after contamination, 0 h count 810000): 0 cfu/ml | antimicrobial activity (in words) ([3]; E. coli, very low concentration (table 2, 0.08%)): not active anymore | colony counts 24 h ([3]; Erythrulose 0.08% active, Escherichia coli, 24 h, t0 count 250000): 530000 cfu/ml | colony counts 24 h ([3]; Erythrulose 0.4 wt.-%, E. coli, 24 h after contamination, 0 h count 440000): 280000 cfu/ml | colony counts 24 h ([4]; Erythrulose 0.08% active, Propionibacterium acnes, 24 h, t0 count 310000): 3300 cfu/ml | colony counts 24 h ([4]; Erythrulose 0.4 wt.-%, P. Acnes, 24 h after contamination, 0 h count 500000): 55000 cfu/ml | antimicrobial activity (in words) ([4]; P. acnes, very low concentration (table 2, 0.08%)): good antimicrobial activity | colony counts 24 h ([5]; Erythrulose 0.08% active, Pseudomonas aeruginosa, 24 h, t0 count 450000): 530000 cfu/ml | colony counts 24 h ([5]; Erythrulose 0.4 wt.-%, P. aeruginosa, 24 h after contamination, 0 h count 810000): 0 cfu/ml | antimicrobial activity (in words) ([5]; P. aeruginosa, very low concentration (table 2, 0.08%)): not active anymore | colony counts 24 h ([6]; Erythrulose 0.08% active, Staphylococcus epidermidis, 24 h, t0 count 560000): 0 cfu/ml | colony counts 24 h ([6]; Erythrulose 0.4 wt.-%, S. epidermidis, 24 h after contamination, 0 h count 500000): 0 cfu/ml | antimicrobial activity (in words) ([6]; S. epidermidis, very low concentration (table 2, 0.08%)): particularly and selectively active | colony counts 24 h [7]: 78 cfu/ml | colony counts 24 h [8]: 0 cfu/ml
